Data reported in patent publication US9994558B2, “Multicyclic compounds and methods of using same” (Karyopharm Therapeutics Inc., priority 2013, dated 2018).

Tests used:
Type in all cases: cell-based
Z138 cells = assay: MTT cell proliferation assay, Z138 cells; conditions: Homo sapiens, Z-138, incubation approximately 64-72 hours
Description: (§1) The MTT cell proliferation assay was used to study the cytotoxic properties of the compounds. The assay was performed according to the method described by Roche Molecular Biochemicals, with minor modifications. The assay is based on the cleavage of the tetrazolium salt, MTT, in the presence of an electron-coupling reagent. The water-insoluble formazan salt produced must be solubilized in an additional step. Cells grown in a 96-well tissue culture plate were incubated with the MTT solution for approximately 4 hours. After this incubation period, a water-insoluble formazan dye formed. After solubilization, the formazan dye was quantitated using a scanning multi-well spectrophotometer (ELISA reader). […] The cells were seeded at 5,000-10,000 cells in each well of 96-well plate in 100 μL of fresh culture medium and were allowed to attach overnight. The stock solutions of the compounds were diluted in 100 μL cell culture medium to obtain eight concentrations of each test compound, ranging from 1 nM to 30 μM. […] All optical densities were measured at 490 nm using a Vmax Kinetic Microplate Reader (Molecular Devices). In most cases, the assay was performed in duplicate and the results were presented as a mean percent inhibition to the negative control±SE. The following formula was used to calculate the percent of inhibition. Inhibition (%)=(1−(ODo/OD))×100.
(§2) The compounds were tested against MS751, Z138 and 3T3 cells. The MS751 cell line is derived from a metastasis to lymph node of human cervix from a patient diagnosed with squameous cell carcinoma of the cervix. The […] cell line is a mature B-cell acute lymphoblastic leukemia cell line derived from a patient with chronic lymphocytic leukemia. 3T3 cells are standard fibroblast cells; they were originally isolated from Swiss mouse embryo tissue.

3T3 cells = assay: MTT cell proliferation assay, 3T3 cells; conditions: Mus musculus, NIH3T3; 3T3 fibroblast cells; incubation approximately 64-72 hours
Description: as §1, §2

MS751 cells = assay: MTT cell proliferation assay, MS751 cells; conditions: Homo sapiens, incubation approximately 64-72 hours
Description: as §1, §2

Row | Compound | IC50 (Z138 cells) [µM] | IC50 (3T3 cells) [µM] | IC50 (MS751 cells) [µM]
1 | CC(=O)c1ccc(-c2ccc(OCCNC(=O)/C=C/c3cccnc3)c(Cl)c2)s1 [Compound 300, (E)-N-(2-(4-(5-acetylthiophen-2-yl)-2-chlorophenoxy)ethyl)-3-(pyridin-3-yl)acrylamide] | 0.1 to 5 | > 10 | 0.1 to 5
2 | CC(O)c1ccc(-c2ccc(OCCNC(=O)/C=C/c3cccnc3)c(Cl)c2)s1 (stereo not drawn) [Compound 301, (E)-N-(2-(2-chloro-4-(5-(1-hydroxyethyl)thiophen-2-yl)phenoxy)ethyl)-3-(pyridin-3-yl) acrylamide] | 0.1 to 5 | 0.1 to 5 | < 0.1
3 | CC(=O)c1ccc(-c2cccc(OCCNC(=O)/C=C/c3cccnc3)c2Cl)s1 [Compound 302, (E)-N-(2-(3-(5-acetylthiophen-2-yl)-2-chlorophenoxy)ethyl)-3-(pyridin-3-yl) acrylamide] | 0.1 to 5 | 0.1 to 5 | < 0.1
4 | CC(=O)c1ccc(-c2ccc(Cl)c(OCCNC(=O)/C=C/c3cccnc3)c2)s1 [Compound 303, (E)-N-(2-(5-(5-acetylthiophen-2-yl)-2-chlorophenoxy)ethyl)-3-(pyridin-3-yl)acrylamide] | 0.1 to 5 | > 10 | 0.1 to 5
5 | CC(=O)c1ccc(-c2ccc(OCCNC(=O)/C=C/c3cccnc3Cl)c(Cl)c2)s1 [Compound 304, (E)-N-(2-(4-(5-acetylthiophen-2-yl)-2-chlorophenoxy)ethyl)-3-(2-chloropyridin-3-yl) acrylamide] | > 10 | > 10 | 5 to 10
6 | CC(=O)c1ccc(-c2ccc(OCCNC(=O)/C=C/c3cccnc3C)c(Cl)c2)s1 [Compound 305, (E)-N-(2-(4-(5-acetylthiophen-2-yl)-2-chlorophenoxy)ethyl)-3-(2-methylpyridin-3-yl) acrylamide] | > 10 | > 10 | > 10
7 | CC(=O)c1ccc(-c2ccc(OCCNC(=O)CCc3cccnc3)c(Cl)c2)s1 [Compound 306, N-(2-(4-(5-acetylthiophen-2-yl)-2-chlorophenoxy)ethyl)-3-(pyridin-3-yl)propanamide] | > 10 | > 10 | 5 to 10
8 | CC(=O)c1ccc(-c2ccc(OCCNC(=O)/C=C/c3c(C)noc3C)c(Cl)c2)s1 [Compound 307, (E)-N-(2-(4-(5-acetylthiophen-2-yl)-2-chlorophenoxy)ethyl)-3-(3,5-dimethylisoxazol-4-yl)acrylamide] | > 10 | > 10 | > 10
9 | CC(=O)c1ccc(-c2ccc(OCCNC(=O)/C=C/c3ccc(N)nc3)c(Cl)c2)s1 [Compound 308, (E)-N-(2-(4-(5-acetylthiophen-2-yl)-2-chlorophenoxy)ethyl)-3-(6-aminopyridin-3-yl) acrylamide] | 0.1 to 5 | > 10 | 0.1 to 5
10 | CC(=O)c1ccc(-c2ccc(OCCNC(=O)C#Cc3cccnc3)c(Cl)c2)s1 [Compound 309, N-(2-(4-(5-acetylthiophen-2-yl)-2-chlorophenoxy)ethyl)-3-(pyridin-3-yl)propiolamide] | > 10 | > 10 | > 10
11 | CC(=O)c1ccc(-c2ccc(OCCNC(=O)/C=C/c3cccnn3)c(Cl)c2)s1 [Compound 310, (E)-N-(2-(4-(5-acetylthiophen-2-yl)-2-chlorophenoxy)ethyl)-3-(pyridazin-3-yl)acrylamide] | > 10 | > 10 | > 10
12 | CC(=O)c1ccc(-c2ccc(OCCN(C)C(=O)/C=C/c3cccnc3)c(Cl)c2)s1 [Compound 311, (E)-N-(2-(4-(5-acetylthiophen-2-yl)-2-chlorophenoxy)ethyl)-N-methyl-3-(pyridin-3-yl)acrylamide] | 0.1 to 5 | 0.1 to 5 | 0.1 to 5
13 | CC(=O)c1ccc(-c2ccccc2OCCNC(=O)/C=C/c2cccnc2)s1 [Compound 312, (E)-N-(2-(2-(5-acetylthiophen-2-yl)phenoxy)ethyl)-3-(pyridin-3-yl)acrylamide] | 0.1 to 5 | 0.1 to 5 | 0.1 to 5
14 | CN1CCN(C(=O)c2ccc(-c3ccc(OCCNC(=O)/C=C/c4ccc(N)nc4)c(Cl)c3)cc2)CC1 [Compound 313, (E)-3-(6-aminopyridin-3-yl)-N-(2-(3-chloro-4′-(4-methylpiperazine-1-carbonyl)biphenyl-4-yloxy)ethyl)acrylamide] | < 0.1 | 0.1 to 5 | < 0.1
15 | Cc1cc(-c2ccc(OCCNC(=O)/C=C/c3ccc(N)nc3)c(Cl)c2)ccc1C(=O)N1CCOCC1 [Compound 314, (E)-3-(6-aminopyridin-3-yl)-N-(2-(3-chloro-3′-methyl-4′-(morpholine-4-carbonyl)biphenyl-4-yloxy)ethyl)acrylamide] | < 0.1 | 0.1 to 5 | < 0.1
16 | C=C(C)c1ccc(-c2ccc(OCCNC(=O)/C=C/c3cccnc3)c(Cl)c2)s1 [Compound 315, (E)-N-(2-(2-chloro-4-(5-(prop-1-en-2-yl)thiophen-2-yl)phenoxy)ethyl)-3-(pyridin-3-yl)acrylamide] | 0.1 to 5 | 5 to 10 | 5 to 10
17 | Nc1ccc(/C=C/C(=O)NCCOc2ccc(-c3ccc(C(=O)N4CCOCC4)cc3)cc2Cl)cn1 [Compound 316, (E)-3-(6-aminopyridin-3-yl)-N-(2-(3-chloro-4′-(morpholine-4-carbonyl)biphenyl-4-yloxy)ethyl)acrylamide] | < 0.1 | 0.1 to 5 | < 0.1
18 | Nc1ccc(/C=C/C(=O)NCCOc2ccc(-c3cccc(C(=O)N4CCOCC4)c3)cc2Cl)cn1 [Compound 317, (E)-3-(6-aminopyridin-3-yl)-N-(2-(3-chloro-3′-(morpholine-4-carbonyl)biphenyl-4-yloxy)ethyl)acrylamide] | < 0.1 | > 10 | < 0.1
19 | CC(C)(O)c1ccc(-c2ccc(OCCNC(=O)/C=C/c3ccc(N)nc3)c(Cl)c2)s1 [Compound 319, (E)-3-(6-aminopyridin-3-yl)-N-(2-(2-chloro-4-(5-(2-hydroxypropan-2-yl)thiophen-2-yl)phenoxy)ethyl)acrylamide] | 0.1 to 5 | > 10 | 0.1 to 5
20 | CC(C)(O)c1ccc(-c2ccc(OCCNC(=O)/C=C/c3cccnc3)c(Cl)c2)s1 [Compound 320, (E)-N-(2-(2-chloro-4-(5-(2-hydroxypropan-2-yl)thiophen-2-yl)phenoxy)ethyl)-3-(pyridin-3-yl)acrylamide] | 0.1 to 5 | 5 to 10 | 0.1 to 5
21 | Nc1ccc(/C=C/C(=O)NCCOc2ccc(-c3ccc(C(=O)N4CCOCC4)nc3)cc2Cl)cn1 [Compound 321, (E)-3-(6-aminopyridin-3-yl)-N-(2-(2-chloro-4-(6-(morpholine-4-carbonyl)pyridin-3-yl)phenoxy)ethyl)acrylamide] | < 0.1 | > 10 | < 0.1
22 | CC(=O)c1ccc(-c2ccc(NCCNC(=O)/C=C/c3cccnc3)c(Cl)c2)s1 [Compound 322, (E)-N-(2-(4-(5-acetylthiophen-2-yl)-2-chlorophenylamino)ethyl)-3-(pyridin-3-yl)acrylamide] | 0.1 to 5 | > 10 | 0.1 to 5
